Data taken from patent US10973788B2, “Treatment of cancer with specific RXR agonists” (Io Therapeutics, Inc., priority 2005, dated 2021).

Tests used:
NSCLC = settings: pivotal Phase III; cited from earlier work
RXR β = RXR β (Homo sapiens, UniProt P28702); test: cell-based; settings: read-out: RXR EC90 β
Protocol: (§1) RXR EC90:RAR EC10 ratio is calculated by taking the inverse of the RXR EC90 α, β and γ values (nM) divided by the corresponding inverse of the RAR EC10 α, β and γ values (nM). For example, the RXR EC90:RAR EC10 ratio is determined by dividing RAR EC10 by RXR EC90 for α, β and γ. Thus, a value is obtained for all three receptors, referred to herein as (RXR EC90:RAR EC10 ratio)α, (RXR EC90:RAR EC10 ratio)β and (RXR EC90:RAR EC10 ratio)γ for α β and γ, respectively. For example, (RXR EC90:RAR EC10 ratio), is determined by dividing RAR EC10α by RXRα EC90. The mean RXR EC90:RAR EC10 ratio is the average of all three values. An example is provided below in Tables 1A and 1B.

RAR β = RAR β (Homo sapiens, UniProt P10826)
Protocol: as §1

RAR γ = RAR γ (Homo sapiens, UniProt P13631)
Protocol: as §1

RAR α = RAR α (Homo sapiens, UniProt P10276)
Protocol: as §1

breast cancer = test: Animal models of breast cancer; assay type: in vivo
[1] = tested on: cell lines derived from a variety of tumor types; test: Tumor growth inhibition in cell lines; assay type: cell-based
human H292 NSCLC tumors = test: Animal models of lung cancer (H292 NSCLC xenograft); assay type: in vivo, nude mice
Protocol: (§2) Nude mice were randomized into 4 groups of 10 animals each based on body weight and xenografted subcutaneously in the right flank with H292 cells (2×10^6 cells). Drug treatment was started immediately after xenografting and continued for 35 days (5 animals of each group) or 55 days (remaining 5 animals). […] Tumor sizes were measured periodically for 35 days (FIG. 1A). Animals #1-5 of each group were sacrificed after 35 days of treatment and gastrocnemus muscles were determined (FIG. 10). The body weights and overall appearance of animals #6 through #10 from each group were followed for an extended period (FIG. 1B and FIG. 1D). To appropriately show the overall health of these animals, pictures were taken from their tumor-free left flank on day 55 (FIG. 1D).

[2] = Rat micronucleus genotoxicity assay; assay type: in vivo
RXR = RXR pan-agonist potency; assay type: cell-based
mouse lymphoma TK = test: Mouse lymphoma TK genotoxicity assay; assay type: cell-based
[3] = Repeated oral dose study for 4 weeks followed by recovery, rats; assay type: in vivo; settings: repeated oral dose 4 weeks
cancer-induced cachexia = test: Models of cancer-induced cachexia; assay type: in vivo
Protocol: as §2

[4] = Repeated oral dose study for 4 weeks followed by recovery, dogs; assay type: in vivo; settings: repeated oral dose 4 weeks

Sequence of RAR α (P10276 whole entry): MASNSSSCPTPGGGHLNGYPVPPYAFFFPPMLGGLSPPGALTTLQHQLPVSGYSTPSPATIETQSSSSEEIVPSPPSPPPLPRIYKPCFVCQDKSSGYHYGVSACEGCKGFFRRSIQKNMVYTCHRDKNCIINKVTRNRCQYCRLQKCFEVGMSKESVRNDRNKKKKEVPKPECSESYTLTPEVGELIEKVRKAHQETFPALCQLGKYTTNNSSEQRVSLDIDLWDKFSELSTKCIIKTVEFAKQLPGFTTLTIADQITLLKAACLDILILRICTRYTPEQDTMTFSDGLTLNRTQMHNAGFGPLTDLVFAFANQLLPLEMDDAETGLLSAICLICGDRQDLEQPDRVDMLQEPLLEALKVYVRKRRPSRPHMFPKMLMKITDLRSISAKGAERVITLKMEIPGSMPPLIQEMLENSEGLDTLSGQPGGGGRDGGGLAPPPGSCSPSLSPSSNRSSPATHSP
Sequence of RXR β (P28702 whole entry): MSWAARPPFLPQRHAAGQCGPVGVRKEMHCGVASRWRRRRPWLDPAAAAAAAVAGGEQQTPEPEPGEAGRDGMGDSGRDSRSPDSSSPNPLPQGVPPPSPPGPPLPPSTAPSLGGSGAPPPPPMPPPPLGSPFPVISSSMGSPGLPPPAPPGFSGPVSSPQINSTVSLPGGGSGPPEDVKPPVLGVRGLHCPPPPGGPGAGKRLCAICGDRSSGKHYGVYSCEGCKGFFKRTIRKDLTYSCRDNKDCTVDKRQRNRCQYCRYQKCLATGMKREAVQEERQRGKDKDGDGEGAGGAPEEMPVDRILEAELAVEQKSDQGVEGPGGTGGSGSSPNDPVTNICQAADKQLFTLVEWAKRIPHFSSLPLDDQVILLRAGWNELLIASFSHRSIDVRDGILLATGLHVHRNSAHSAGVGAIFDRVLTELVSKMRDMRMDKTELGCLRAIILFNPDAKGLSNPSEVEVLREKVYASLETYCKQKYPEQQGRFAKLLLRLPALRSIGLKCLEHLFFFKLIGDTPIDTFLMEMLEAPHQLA

Structure (SMILES) | survival (NSCLC) | EC90 (RXR β) | RAR EC10 β (RAR β) | RAR EC10 γ (RAR γ) | RAR EC10 α (RAR α) | tumor growth inhibition (breast cancer) | genotoxicity (Ames genotoxicity test) | tumor growth inhibition [1] | tumor growth inhibition (human H292 NSCLC tumors) | genotoxicity [2] | EC50 (RXR) | genotoxicity (mouse lymphoma TK) | severe toxic dose [3] | body weight (cancer-induced cachexia) | food consumption (cancer-induced cachexia) | muscle and adipose tissue (cancer-induced cachexia) | survival (cancer-induced cachexia) | severe toxic dose [4]
C=C(c1ccc(C(=O)O)cc1)c1cc2c(cc1C)C(C)(C)CCC2(C)C [TARGRETIN ®, bexarotene] | did not show increased survival | 100 nM | – | – | – | – | – | – | – | – | – | – | – | – | – | – | – | –
CC(/C=C/[C@@H]1C[C@]1(C)c1ccc2c(c1)C(C)(C)CCC2(C)C)=C\C(=O)O [VTP 194204, 3,7-dimethyl-6(S),7(S)-methano,7-[1,1,4,4-tetramethyl-1,2,3,4-tetrahydron-aphth-7-yl]2(E), 4(E) heptadienoic acid] | – | – | […] | […] | 300 nM | tumor growth inhibitory effects | No genotoxicity | tumor growth inhibitory effects | tumor growth inhibitory effects | No genotoxicity | […] | No genotoxicity | […] | maintained body weight | improved food consumption | prevented loss of muscle and adipose tissue | prolonged survival | […]
